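1) Cells in 96-well plates. 2) Compound, 48 h, 5 concentrations. 3) Linear interpolation between surrounding doses. 4) Unreached endpoint = highest concentration. GI50: concentration for 50% inhibition of growth.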 Calls of active or inactive are those of the source. Rule as the data show it: active = GI50 up to about 1.1 µM and inactive = higher.

Assay in all cases: NCI anticancer screen, dose series, 48 h
For experiment [1], the system named is A549.
Experiment [2] concerns BT-549.
Experiment [3] relates to HCC 2998.
Experiment [4] has as its system KM12.
In experiment [5] the test system is MCF7.
The subject of experiment [6] is MDA-MB-231.
Experiment [7] has as its system MDA-MB-435.
The subject of experiment [8] is MOLT-4.
In experiment [9] the test system is NCI-H226.
Experiment [10] concerns NCI-H23.
Experiment [11] has as its system NCI/ADR-RES.
Experiment [12] deals with RXF 393.
Experiment [13] has as its system SK-MEL-2.
For experiment [14], the system named is SK-OV-3.
Experiment [15] concerns SNB-75.
The subject of experiment [16] is SR.
Experiment [17] concerns UACC-257.
Experiment [18] has as its system UO-31.
In experiment [19] the test system is NCI-H522.
The test system of experiment [20] is Malme-3M.

Regarding `N#Cc1c(Cl)c2ccccc2n2c1nc1ccccc12`, the GI50 in experiment [1] was > 100 µM (inactive); in experiment [2], 71 µM (inactive); in [3], 19.6 µM (inactive); in [4] it was 34.1 µM (inactive); in experiment [5], 39.9 µM (inactive); in experiment [6] it was 23.8 µM (inactive). Also, the GI50 in [7] was 56.1 µM (inactive); in experiment [8], 30.3 µM (inactive); in experiment [9], 21.6 µM (inactive); in [10] it was 24.2 µM (inactive); in experiment [11], 23.3 µM (inactive); in [12], 22.6 µM (inactive). Moreover, the GI50 in experiment [13] is 37.3 µM (inactive); in experiment [14], 87.9 µM (inactive); in experiment [15], 60.4 µM (inactive); in [16], 50 µM (inactive); in [17], 42.4 µM (inactive); in experiment [18] it was 16.1 µM (inactive).

As to `CO[C@H](C)[C@](O)(C(=O)OCC1=CCN2CC[C@@H](O)[C@H]12)C(C)C`, the GI50 in experiment [1], in [2], in [3], in [4], in experiment [5] and in experiment [6] was > 100 µM (inactive) each time. The GI50 in experiment [7], in [8], in [9], in [10], in experiment [19] and in [11] was > 100 µM (inactive) throughout. Also, the GI50 in [13], in [14], in experiment [15], in [16], in experiment [17] and in experiment [18] was > 100 µM (inactive) in each case.

With `C=CC1ON(C)CCc2cc(OC)c(OC)cc21` (stereo unspecified), the GI50 in experiment [1] is > 100 µM (inactive); in experiment [2], > 100 µM (inactive); in experiment [3], > 100 µM (inactive); in experiment [4], > 100 µM (inactive); in experiment [5], 1.63 µM (inactive); in [6], > 100 µM (inactive). Besides, the GI50 in experiment [7], in experiment [8], in [20], in experiment [9], in experiment [10] and in experiment [19] was > 100 µM (inactive) each time. Besides, the GI50 in experiment [11], in experiment [15], in experiment [16], in [17] and in experiment [18] was > 100 µM (inactive) throughout.

For `CCCn1c(SC)nc(COC(=O)NC)c1COC(=O)NC`, the GI50 in [1], in experiment [2], in experiment [4], in experiment [5], in [6] and in experiment [7] was > 100 µM (inactive) in each case. Also, the GI50 in [8], in experiment [9], in [10], in [19], in [11] and in [13] was > 100 µM (inactive) in each case. In addition, the GI50 in experiment [14], in [15], in experiment [16], in [17] and in [18] was > 100 µM (inactive) in each case.

Turning to `CC(C)CC(=O)NC(C(=O)NC(C(=O)NC(CC(C)C)C(O)CC(=O)NC(C)C(=O)NC(CC(C)C)C(O)CC(=O)O)C(C)C)C(C)C` (stereo unspecified), the GI50 is > 100 µM (inactive) in [1]; 22.1 µM (inactive) in [2]; > 100 µM (inactive) in experiment [3]; > 100 µM (inactive) in [4]; > 100 µM (inactive) in [5]; > 100 µM (inactive) in [6]. The GI50 was > 100 µM (inactive) in [7]; > 100 µM (inactive) in [8]; > 100 µM (inactive) in experiment [20]; 0.436 µM (active) in experiment [9]; > 100 µM (inactive) in experiment [10]; > 100 µM (inactive) in experiment [19]. Also, the GI50 in experiment [11], in experiment [13], in experiment [14], in experiment [15], in experiment [16] and in experiment [17] was > 100 µM (inactive) each time. In [18], the GI50 is > 100 µM (inactive).

As for `O=C(c1c(Cl)cc(Cl)cc1Cl)N(Cc1cccnc1)C(=S)N(Cc1cccnc1)C(=O)c1c(Cl)cc(Cl)cc1Cl`, the GI50 is 32.1 µM (inactive) in experiment [1]; 2.98 µM (inactive) in [2]; 3.12 µM (inactive) in experiment [3]; 2.97 µM (inactive) in experiment [4]; 4.52 µM (inactive) in experiment [5]; 20.4 µM (inactive) in experiment [6]. Moreover, the GI50 in experiment [7] was 8.67 µM (inactive); in experiment [8], 6.84 µM (inactive); in experiment [20] it was 19.5 µM (inactive); in [9] it was 19 µM (inactive); in [10], 8.67 µM (inactive); in experiment [19], 6.89 µM (inactive). For the same compound, the GI50 was 11.4 µM (inactive) in [11]; 12.5 µM (inactive) in experiment [13]; 22.2 µM (inactive) in experiment [14]; 5.35 µM (inactive) in [15]; 6.56 µM (inactive) in experiment [16]; 7.26 µM (inactive) in experiment [17]. Also, in experiment [18], the GI50 is 5.47 µM (inactive).

In the case of `O=C(CCc1cccc(O)c1)NCCc1cccc(O)c1`, the GI50 in [1], in [2], in experiment [3], in experiment [4], in experiment [5] and in experiment [6] was > 100 µM (inactive) each time. Moreover, the GI50 in experiment [7], in [8], in experiment [20], in experiment [9], in experiment [10] and in [19] was > 100 µM (inactive) in each case. Besides, the GI50 in experiment [11], in [12], in experiment [13], in experiment [14], in experiment [16] and in [17] was > 100 µM (inactive) each time. For the same compound, in [18], the GI50 was > 100 µM (inactive).

Take `O=c1oc2ccccc2n1CCCn1c(=O)oc2ccccc21`: the GI50 in [2], in experiment [4], in [5], in experiment [6], in experiment [7] and in experiment [8] was > 100 µM (inactive) throughout. Further, the GI50 in experiment [20] is > 100 µM (inactive); in experiment [9], > 100 µM (inactive); in experiment [10] it was > 100 µM (inactive); in [11], > 100 µM (inactive); in experiment [12], 82.8 µM (inactive); in [13], > 100 µM (inactive). Moreover, the GI50 was > 100 µM (inactive) in experiment [14], 44.5 µM (inactive) in [15], > 100 µM (inactive) in experiment [16] and > 100 µM (inactive) in [17].

Consider `Cc1cc(C)nc(NS(=O)(=O)c2ccc(Nc3c4ccccc4nc4c(C(=O)NNCCO)cccc34)cc2)n1`, for which the GI50 in experiment [1] is > 100 µM (inactive); in experiment [2] it was > 100 µM (inactive); in experiment [3] it was > 100 µM (inactive); in experiment [4] it was > 100 µM (inactive); in [5], 89.1 µM (inactive); in experiment [6] it was > 100 µM (inactive). The GI50 in experiment [7] was 79.3 µM (inactive); in [8], 30.9 µM (inactive); in experiment [20], > 100 µM (inactive); in [10], > 100 µM (inactive); in [19], 39.5 µM (inactive); in experiment [11] it was > 100 µM (inactive). The GI50 in [13] was 58.6 µM (inactive); in experiment [14] it was > 100 µM (inactive); in experiment [16] it was 25.4 µM (inactive); in [17], > 100 µM (inactive); in experiment [18], > 100 µM (inactive).

For the compound `Cc1cccc(/C=N/NC(=S)NCc2ccccn2)n1`, the GI50 was 27.1 µM (inactive) in experiment [1]; 58.2 µM (inactive) in [2]; 41.7 µM (inactive) in experiment [3]; 40.3 µM (inactive) in experiment [4]; 31.8 µM (inactive) in [5]; 33.5 µM (inactive) in experiment [6]. Further, the GI50 is 36.9 µM (inactive) in [7]; 16.5 µM (inactive) in [8]; 22.1 µM (inactive) in [20]; 29.3 µM (inactive) in experiment [9]; 40.8 µM (inactive) in experiment [10]; 34.3 µM (inactive) in experiment [19]. For the same compound, the GI50 in experiment [11] was 25.2 µM (inactive); in experiment [13] it was > 100 µM (inactive); in experiment [14], 28.3 µM (inactive); in experiment [15], 17.6 µM (inactive); in experiment [16] it was 38.9 µM (inactive); in experiment [17] it was 41.7 µM (inactive). For the same compound, in experiment [18], the GI50 was 14.8 µM (inactive).

In the case of `O=[N+]([O-])/C(C(Cl)=C(Cl)Cl)=C1\NCCS1`, the GI50 in [1] was > 100 µM (inactive); in experiment [2], 70 µM (inactive); in experiment [3], 34.4 µM (inactive); in experiment [4] it was 69.7 µM (inactive); in experiment [5], 36 µM (inactive); in experiment [6] it was 38.8 µM (inactive). The GI50 in experiment [7] is 35.8 µM (inactive); in [8] it was 21.9 µM (inactive); in experiment [20] it was 19.7 µM (inactive); in experiment [9], > 100 µM (inactive); in [10] it was 31.5 µM (inactive); in experiment [11] it was 30.2 µM (inactive). Moreover, the GI50 in experiment [12] was 27.9 µM (inactive); in experiment [14] it was > 100 µM (inactive); in experiment [16], 18.4 µM (inactive); in experiment [17], 42.2 µM (inactive); in experiment [18], 41.1 µM (inactive).

These data come from ChEMBL document CHEMBL1201862, “PubChem BioAssay data set” (2004).
